Measured values taken from PubChem BioAssay (NCI).
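Grown in 96-well plates, cells were treated for 48 hours with each compound at five concentrations. Insufficient inhibition: endpoint recorded as highest concentration tested. The concentration for full growth arrest is given as TGI.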

Assays:
Assay in all cases: NCI tumour cell line growth inhibition, 48 h
[1] = tested on: ACHN renal
[2] = tested on: COLO 205 colon
[3] = tested on: HOP-92 NSCLC
[4] = tested on: M14 melanoma
[5] = tested on: NCI-H226 lung
[6] = tested on: NCI-H23 lung
[7] = tested on: SK-MEL-2 melanoma
[8] = tested on: SR leukemia
[9] = tested on: EKVX NSCLC
[10] = tested on: TK-10 renal
[11] = tested on: UO-31 renal

SMILES	TGI [1]	TGI [2]	TGI [3]	TGI [4]	TGI [5]	TGI [6]	TGI [7]	TGI [8]	TGI [9]	TGI [10]	TGI [11]
CC(C)(C)OC(=O)NC1CCCC1C(O)(C1=CCCC1)C1=CCCC1 (configuration not stated)	> 100 µM	> 100 µM	> 100 µM	> 100 µM	> 100 µM	> 100 µM	> 100 µM	> 100 µM			
N#Cc1nc(C(F)(F)F)oc1N	> 100 µM	> 100 µM	> 100 µM	> 100 µM	> 100 µM	> 100 µM	> 100 µM	> 100 µM	> 100 µM	> 100 µM	> 100 µM
COC(=O)c1ccc(CCC2=CC(=O)C(Br)=CC2=O)cc1	25.1 µM	18.7 µM	11.9 µM	28.3 µM	30.5 µM	28.4 µM	31.9 µM	> 100 µM	38.7 µM	31.1 µM	29.2 µM
CCSCC(=O)N1CCc2c([nH]c3ccccc23)C1=O	> 100 µM	> 100 µM	92.8 µM	> 100 µM	> 100 µM	> 100 µM	> 100 µM	> 100 µM	> 100 µM	> 100 µM	> 100 µM
CC(=O)Nc1ccc(N2C(=O)CS(=O)(=O)C2c2cccc(Oc3ccccc3)c2)cc1 (configuration not stated)	36.3 µM	35.7 µM	29.5 µM	33.9 µM	35.8 µM	43.5 µM	37.3 µM	48.7 µM	35.5 µM	41.7 µM	33.8 µM
NC(CCl)=NC1CN2CCC1CC2 (configuration not stated)	> 100 µM	73.8 µM	> 100 µM	> 100 µM	> 100 µM	> 100 µM	> 100 µM	> 100 µM	> 100 µM	> 100 µM	
OCCN1CN(c2nc(N3CN(CCO)C3)nc(N3CN(CCO)C3)n2)C1	95.3 µM	59.2 µM	53 µM	34.3 µM	51.2 µM	50 µM	41.9 µM	> 100 µM	70.1 µM	78.7 µM	56.1 µM
O=C(O)C(F)(F)C(F)(F)C(F)(F)C(F)(F)C(=O)O	> 100 µM	> 100 µM	> 100 µM	> 100 µM	> 100 µM	> 100 µM	> 100 µM	> 100 µM	> 100 µM	> 100 µM	> 100 µM
Cc1c(C)c2c(c(N)c1C#N)C(=O)N(OS(=O)(=O)c1ccccc1)C2=O	33.1 µM	45.3 µM	35.2 µM	41.6 µM	43.3 µM		> 100 µM	> 100 µM	37.4 µM	37.2 µM	> 100 µM
Cc1c(NC(=S)N/N=C\C(=N/NC(=S)Nc2c(C)n(C)n(-c3ccccc3)c2=O)c2ccccc2)c(=O)n(-c2ccccc2)n1C	> 100 µM	> 100 µM	> 100 µM	> 100 µM	> 100 µM	> 100 µM	> 100 µM	> 100 µM	> 100 µM	> 100 µM	> 100 µM
COC(=O)c1c(O)ccc2c1c1c(n2Cc2ccc(OC)cc2)C(=O)c2ccccc2C1=O	12.6 µM	3.3 µM	25.3 µM	32.4 µM	25.8 µM	32.2 µM	25.6 µM	2.92 µM	> 100 µM	> 100 µM	29.2 µM
O=C1CSC(c2cccc(Cl)c2)N1c1c(O)c(Cl)cc(Br)c1Cl (configuration not stated)	27.9 µM	61.2 µM	29.9 µM	> 100 µM	> 100 µM	> 100 µM	29 µM	70.6 µM	> 100 µM	> 100 µM	28.9 µM
CN(C)c1ccc(/C=N/n2c(-c3ccccc3)nc3ccccc3c2=O)cc1	> 100 µM	> 100 µM	> 100 µM	> 100 µM	> 100 µM	> 100 µM	> 100 µM	83.6 µM	> 100 µM	> 100 µM	
O=c1[nH]nc(-c2ccc([N+](=O)[O-])cc2)n1/N=C/c1ccc([N+](=O)[O-])cc1	> 100 µM	> 100 µM	> 100 µM	> 100 µM	> 100 µM	> 100 µM	> 100 µM	> 100 µM	> 100 µM	> 100 µM	> 100 µM
C/C=C1\CN2CCC34c5ccccc5N(C)C35OCC4(C(=O)OC)C1CC25 (configuration not stated)	> 100 µM	31.5 µM	> 100 µM	45.4 µM		> 100 µM	> 100 µM	> 100 µM	> 100 µM	> 100 µM	> 100 µM
CN(C)Cc1cc(C(C)(C)C)cc(CNC2CCCCC2)c1O	> 100 µM	33.3 µM	59.7 µM	34.4 µM		> 100 µM	> 100 µM	71.8 µM	> 100 µM	> 100 µM	34.6 µM
O=c1c2ncn(C3CCCCO3)c2n(-c2ccccc2)c(=S)n1-c1ccccc1 (configuration not stated)	> 100 µM	> 100 µM	31 µM	> 100 µM	86.2 µM	64.3 µM	> 79.7 µM	> 100 µM	> 87.9 µM	83 µM	> 71.4 µM
CC(=O)[C@H]1CC[C@H]2[C@@H]3CCC4=CC(=O)CC[C@]4(C)[C@H]3CC[C@]12C	75.2 µM	29.5 µM	71.3 µM	32.4 µM	45 µM	35.7 µM	44.3 µM	> 100 µM	9.66 µM	52.2 µM	26.4 µM
NNC(=Nc1ccccc1)SCc1ccccc1	> 100 µM	> 100 µM	> 100 µM	> 100 µM	> 100 µM	> 100 µM	> 100 µM	> 100 µM			> 100 µM
CC(C)=NNc1cnnc2ccc([N+](=O)[O-])cc12	> 100 µM	> 100 µM	> 100 µM	> 100 µM	> 100 µM	> 100 µM	> 100 µM	> 100 µM	> 100 µM		> 100 µM
O=C(Nc1ccccc1)c1cc(S(=O)(=O)Nc2n[nH]c(=O)[nH]2)c(SSc2cc(Cl)c(C(=O)Nc3ccccc3)cc2S(=O)(=O)Nc2n[nH]c(=O)[nH]2)cc1Cl	> 100 µM	> 100 µM	> 100 µM	> 100 µM	> 100 µM	> 100 µM	> 100 µM	> 100 µM	> 100 µM	> 100 µM	> 100 µM

SMILES	TGI [1]	TGI [2]	TGI [3]	TGI [4]	TGI [5]	TGI [6]	TGI [7]	TGI [8]	TGI [9]	TGI [10]	TGI [11]
CCOP(=O)(CC1CC(O)(CNc2cc(Cl)nc(N)n2)C1)OCC (configuration not stated)	> 100 µM	> 100 µM	> 100 µM		> 100 µM	> 100 µM	> 100 µM	> 100 µM	> 100 µM	> 100 µM	> 100 µM
CSc1nc2c(c(=O)n1C)N=C(c1ccc(Cl)cc1)CC(c1ccccc1)N2 (configuration not stated)	44.6 µM	39.2 µM	> 100 µM	34.7 µM	42.6 µM	62 µM	29.5 µM	> 100 µM	65.1 µM		> 100 µM
Cc1ccc2ccc(=O)oc2c1	> 100 µM	> 100 µM	> 100 µM	> 100 µM	> 100 µM	> 100 µM	> 100 µM	> 100 µM	> 100 µM	> 100 µM	> 100 µM
COc1ccc(-c2cc(C3CC3)nc(SCC(=O)O)c2C#N)cc1	> 100 µM	> 100 µM	> 100 µM	> 100 µM	> 100 µM	> 100 µM	> 100 µM	> 100 µM	> 100 µM	> 100 µM	11.1 µM
CN1c2ccccc2C(=O)NC12CCN(Cc1ccccc1)CC2	> 100 µM	> 100 µM	98.5 µM	> 100 µM	> 100 µM	> 100 µM		> 100 µM	> 100 µM	> 100 µM	> 100 µM
CCn1nc(-c2ccccc2)c2c1N(C)c1ccccc1-n1c(-c3ccccc3)nnc1-2	26.8 µM	48.5 µM	35.9 µM	32.1 µM	52.7 µM	28.2 µM	32.8 µM	> 100 µM		31.1 µM	40.5 µM
O=C(CCCC1Cc2ccccc2C1=O)c1ccccc1 (configuration not stated)	> 100 µM	> 100 µM	> 100 µM	> 100 µM	> 100 µM	> 100 µM	> 100 µM	> 100 µM	> 100 µM	> 100 µM	> 100 µM
O=C1OC(C2Cc3ccccc3C2=O)c2ccccc21 (configuration not stated)	> 100 µM	> 100 µM	> 100 µM	> 100 µM	> 100 µM	> 100 µM	> 100 µM	> 100 µM	> 100 µM	> 100 µM	> 100 µM
Cc1c(C#N)c2nnn(-c3ccc([N+](=O)[O-])cc3)c(=O)n2c1-c1ccccc1	16.4 µM	22.9 µM	31.4 µM	25 µM	26.9 µM	18.5 µM	22 µM	46.3 µM	32 µM	> 100 µM	25.5 µM
Cc1ccc(S(=O)(=O)Nc2nc3ccccc3c(=O)n2C2CCCCC2)cc1	> 100 µM	> 100 µM	> 100 µM	> 100 µM	> 100 µM	> 100 µM	> 100 µM	> 100 µM	> 100 µM	> 100 µM	> 100 µM
c1ccc2c(c1)nc1n2CCNC1	> 100 µM	> 100 µM	> 100 µM	> 100 µM	> 100 µM	> 100 µM	> 100 µM	> 100 µM	> 100 µM	> 100 µM	> 100 µM
OC12C3C4CC5C(C4[C@@H]1Br)C2[C@@](O)(c1c(F)c(F)c(F)c(F)c1F)C53 (some centres not stated)	> 100 µM	> 100 µM	68.7 µM	> 100 µM		> 100 µM	69.2 µM	52.7 µM	98.9 µM	> 100 µM	95.2 µM
N#CN=C1c2ccccc2C(=NC#N)c2cc(CO)ccc21	74 µM		77 µM	> 100 µM	> 100 µM	> 100 µM	> 100 µM	43 µM	> 100 µM	> 100 µM	> 100 µM
CCN(CC)c1ccc2c(c1)Oc1ccc(N(C(C)=O)c3ccccc3)cc1C21OC(=O)c2ccccc21 (configuration not stated)	> 100 µM	> 100 µM	> 100 µM	> 100 µM	> 100 µM	> 100 µM	> 100 µM	> 100 µM	> 100 µM	> 100 µM	> 100 µM
O=C1C=C(N2CCCC2)C(=O)c2c(O)ccc(O)c21	> 10 µM		> 10 µM	> 10 µM	> 10 µM	> 1 µM	> 10 µM	> 1 µM	> 10 µM	> 10 µM	> 10 µM
Cc1ccc(C2(N3CCCC3)OC(C)(C)c3cccc4cccc2c34)cc1 (configuration not stated)	29.9 µM	30.3 µM	21.2 µM	34 µM	31.8 µM	29.9 µM	28.2 µM	67.6 µM	24 µM	38.6 µM	28.3 µM
O=S(=O)(O)c1ccc2c(N=Nc3ccccc3)c(O)c(S(=O)(=O)O)cc2c1	> 100 µM	> 100 µM	> 100 µM	> 100 µM	> 100 µM	> 100 µM	> 100 µM	> 100 µM	> 100 µM	> 100 µM	> 100 µM
CCN(CC)c1ccc(/C=c2\nc(-c3ccccc3)n3c2nc2ccccc23)cc1	88.3 µM	20.1 µM	> 100 µM	37.9 µM	60.5 µM	> 100 µM	> 100 µM	> 100 µM	35.4 µM	> 100 µM	> 100 µM
CC(C)=CCC/C(=C\CC/C(=C\CCc1ccoc1)C(=O)O)C(=O)O	> 100 µM	> 100 µM	> 100 µM	> 100 µM	> 100 µM	> 100 µM	> 100 µM	> 100 µM	> 100 µM	> 100 µM	> 100 µM
CC(=O)c1cc2c(s1)C(=O)c1scc(C(C)=O)c1C2=O	0.828 µM	3.54 µM	0.93 µM		3.57 µM	1.72 µM	1.3 µM	0.335 µM	1.34 µM	9.9 µM	1.31 µM
